Laboratory results as given in patent US10189837B2, “Crystalline (8S,9R)-5-fluoro-8-(4-fluorophenyl)-9-(1-methyl-1H-1,2,4-triazol-5-yl)-8,9-dihydro-2H-pyrido[4,3,2-de]phthalazin-3(7H)-one tosylate salt” (Medivation Technologies, LLC, priority 2010, dated 2019).

Columns and labels:
Format in all cases: cell-based
[1] = tested on: Oral squamaous carcinoma HSC-3 cells; assay: Single-agent cytotoxicity assay in head & neck tumor cell lines; settings: Homo sapiens
Description: (§1) Oral squamaous carcinoma HSC-3 and HSC-4 cells were cultured in MEM+10% FBS. Oral squamaous carcinoma CAL 27 was cultured in DMEM+10% FBS. Basaloid squamous cell line PE/CA-PJ34 (clone 12) was cultured in IMDM+10% FBS. All cell lines were maintained in their corresponding growth media containing 100 U/mL Penicillin and 100 μg/mL Streptomycin in 37° C. incubator with 5% CO2 till ready for assay. According to individual cell line growth rate, cells were seeded at different densities as indicated in each graph in 96-well plates in the time of assay. Cells were incubated for overnight at 37° C. before treated with their corresponding growth media containing free base in 0.1% DMSO at various concentrations ranging from 5000 nM to 0.064 nM. 0.1% DMSO was used as mock treatment or control. Media and compound were replenished every 5 days. After incubation for 7, 10, 11 or 13 days (as indicated in each graph), cell survival was measured by CellTiter Glo (Promega) and cell survival fraction was calculated relative to control. GraphPad Prism5 software was used to plot data and calculate IC50 values.

[2] = tested on: Basaloid squamous cell line PE/CA-PJ34 (clone 12); assay: as above
Description: as §1

[3] = tested on: Oral squamaous carcinoma HSC-4 cells; assay: as above; settings: Homo sapiens
Description: as §1

[4] = tested on: Oral squamaous carcinoma CAL 27; assay: as above; settings: Homo sapiens
Description: as §1

[5] = tested on: Mantle cell lymphoma cell line Z138; assay: Single-agent cytotoxicity assay, CellTiter Glo cell survival; settings: Homo sapiens, Z-138, 96 h, 4-day assay
Description: (§2) Mantle cell lymphoma cell line Granta-519 was cultured in Dulbecco's MEM (4.5 g/L glucose) containing 10% FBS, 2 mM L-glutamine, 100 U/mL Penicillin and 100 μg/mL Streptomycin. Mantle cell lymphoma cell line Jeko-1 was cultured in RPMI1640 containing 10% FBS, 100 U/mL Penicillin and 100 μg/mL Streptomycin. Mantle cell lymphoma cell line Z138 was cultured in IMDM containing 10% horse serum, 100 U/mL Penicillin and 100 μg/mL Streptomycin. All cell lines were maintained in 37° C. incubator with 5% CO2 till ready for assay. Granta-519, Jeko-1 and Z138 cells were seeded at either 1000 or 5000 cells/well in 96-well plates. Cells were incubated for overnight at 37° C. before treated with their corresponding growth media containing free base in 0.1% DMSO at various concentrations ranging from 1000 nM to 0.32 nM. 0.1% DMSO was used as mock treatment or control. After 4 days incubation, cell survival was measured by CellTiter Glo (Promega) and cell survival fraction was calculated relative to control. GraphPad Prism5 software was used to plot data and calculate IC50 values.

[6] = tested on: Mantle cell lymphoma cell line Jeko-1; assay: as above; settings: Homo sapiens, JeKo-1, 96 h, 4-day assay
Description: as §2

[7] = tested on: Mantle cell lymphoma cell line Granta-519; assay: as above; settings: Homo sapiens, Granta-519, 96 h, 4-day assay
Description: as §2

In the case of `Cn1ncnc1[C@H]1c2n[nH]c(=O)c3cc(F)cc(c23)N[C@@H]1c1ccc(F)cc1` [free base, (8S,9R)-5-fluoro-8-(4-fluorophenyl)-9-(1-methyl-1H-1,2,4-triazol-5-yl)-8,9-dihydro-2H-pyrido[4,3,2-de]phthalazin-3(7H)-one], the IC50 ([1]; 168 h, HSC-3, 7 days, 1500/well) is reported as 972 nM, the IC50 ([1]; 264 h, HSC-3, 11 days, 750/well) is reported as 931 nM and the IC50 ([2]; 240 h, PE/CA-PJ34 C12, 10 days, 2000/well) is reported as 13.6 nM. The IC50 ([2]; 312 h, PE/CA-PJ34 C12, 13 days, 1000/well) was 18.1 nM, the IC50 ([3]; 168 h, HSC-4, 7 days, 100/well) was 58 nM and the IC50 ([3]; 264 h, HSC-4, 11 days, 200/well) was 48.8 nM. For the same compound, the IC50 ([4]; CAL-27, 168 h, CAL27, 7 days, 800/well) was 23 nM, the IC50 ([4]; CAL-27, 264 h, CAL27, 11 days, 400/well) was 15.3 nM and the IC50 ([5]; Z-138, 1000/well) was 10.4 nM. It also gave an IC50 ([5]; Z-138, 5000/well) of 59.4 nM, an IC50 ([6]; Jeko-1, 1000/well) of 64.2 nM and an IC50 ([6]; Jeko-1, 5000/well) of 357 nM. For the same compound, the IC50 ([7]; Granta-519, 1000/well) was 1.7 nM and the IC50 ([7]; Granta-519, 5000/well) was 8.83 nM.
